The values below come from patent US20100298340A1, “Thiazol-Guanidine Derivatives Useful As A (Beta)-Related Pathologies” (AstraZeneca AB, priority 2006, published 2010).

Molecules are shown by their SMILES.

This test deals with T1, human β-Secretase (Homo sapiens, UniProt P56817).
T1 construct: The soluble part of the human β-Secretase (AA 1-AA 460) was cloned; Fc domain of IgG1 (C); made in house
T1 sequence (P56817 22-460): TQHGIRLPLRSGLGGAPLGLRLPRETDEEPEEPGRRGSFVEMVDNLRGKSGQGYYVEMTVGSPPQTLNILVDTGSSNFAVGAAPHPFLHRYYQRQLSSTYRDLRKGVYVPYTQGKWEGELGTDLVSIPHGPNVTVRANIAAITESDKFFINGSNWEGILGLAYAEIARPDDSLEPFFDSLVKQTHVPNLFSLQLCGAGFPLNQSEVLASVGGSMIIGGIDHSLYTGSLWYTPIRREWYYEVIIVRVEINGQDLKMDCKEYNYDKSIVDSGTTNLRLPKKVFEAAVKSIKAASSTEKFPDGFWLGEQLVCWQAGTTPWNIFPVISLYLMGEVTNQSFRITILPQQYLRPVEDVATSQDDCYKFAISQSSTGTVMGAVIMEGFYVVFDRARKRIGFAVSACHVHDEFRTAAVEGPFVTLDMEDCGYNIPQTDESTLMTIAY
The experiment in a line: TR-FRET Assay. It is filed as biochemical. Here is the method: The enzyme used in the IGEN Cleavage-, Fluorescent-, TR-FRET- and the BiaCore assay is described as follows:
The soluble part of the human β-Secretase (AA 1-AA 460) was cloned into the ASP2-Fc10-1-IRES-GFP-neoK mammalian expression vector. The gene was fused to the Fc domain of IgG1 (affinity tag) and stably cloned into HEK 293 cells. Purified sBACE-Fc is stored in Tris buffer, pH 9.2 and has a purity of 95%.
Dilute the enzyme (truncated form) to 6 μg/mL (stock 1.3 mg/mL) and the substrate (Europium)CEVNLDAEFK(Qsy7) to 200 nM (stock 60 μM) in reaction buffer (NaAcetate, chaps, triton x-100, EDTA pH4.5). The Biomek FX is used for all liquid handling and the enzyme and substrate solutions are kept on ice until they are placed in Biomek FX. Enzyme (9 μl) is added to the plate then 1 μl of compound in dimethylsulphoxide is added, mixed and pre-incubated for 10 minutes. Substrate (10 μl) is then added, mixed and the reaction proceeds in the dark for 15 minutes at room temperature. The reaction is stopped with the addition of Stop solution ([…] pH 9). The fluorescence of the product is measured on a Victor II plate reader with an excitation wavelength of 340 nm and an emission wavelength of 615 nm. The assay is done in a Costar 384 well round bottom, low volume, non-binding surface (Corning #3676). The final concentration of the enzyme is 0.3 nM; the final concentration of substrate is 100 nM (Km of ˜250 nM). The dimethylsulphoxide control defines the 100% activity level and 0% activity is defined by only addition of the peptide substrate.
(In general: TR-FRET usually uses a lanthanide donor and a delayed reading to cut background.)
One may read the IC50 as the concentration at which inhibition is half-maximal. A low value points to greater potency in that assay. As to `CCc1ccc2c(Cl)c(C(=O)Nc3cccc(-c4sc(NC(=N)N)nc4C)c3)sc2c1` [Example 18, N-[3-(2-{[Amino(imino)methyl]amino}-4-methyl-1,3-thiazol-5-yl)phenyl]-3-chloro-6-ethyl-1-benzothiophene-2-carboxamide], half-maximal inhibition (IC50) was put at 6.03 µM.

In the case of `Cc1nc(NC(=N)N)sc1-c1cccc(NC(=O)c2ccc(-c3csnn3)cc2)c1` [Example 17, N-[3-(2-{[Amino(imino)methyl]amino}-4-methyl-1,3-thiazol-5-yl)phenyl]-4-(1,2,3-thiadiazol-4-yl)benzamide], it took 4.47 µM to reach half-maximal inhibition (IC50).

`CCc1nc(NC(=N)N)sc1-c1ccc(NCC2CCN(C(=O)OCc3ccccc3)CC2)cc1` [Example 20, Benzyl 4-({[4-(2-{[amino(imino)methyl]amino}-4-ethyl-1,3-thiazol-5-yl)phenyl]amino}methyl)piperidine-1-carboxylate] showed an IC50 of 5.01 µM.
